From PMC4481117 (Molecular Pain, 2015)

Key:
[1] = system: μ- and δ-opioid receptors; design: method as in PMID 8624732; conditions: cited from earlier work
rat mast cells = conditions: cited from earlier work
Description: (§1) Apart from their effects on κ-opioid receptors on neurons, Dyn A exerts numerous effects on leukocytes, particularly myeloid cells. […] In addition, Dyn A (residues 1–13) and Dyn A (residues 1–9) stimulate ...

macrophages = conditions: cited from earlier work
Description: as §1

macrophage = conditions: cited from earlier work
Description: as §1

Mac-1-HEK293 cells = assay: Translocation of Dyn A into Mac-1-HEK293 cells (immunolabeling); type: cell-based, Human; conditions: 40 min at 37 °C
Description: (§2) Fig. 5 Translocation of Dyn A into cells. Mac-1-expressing (a) and wild-type HEK293 (b) cells were incubated with 20 μM and 100 μM of Dyn A for 40 min at 37 °C, fixed, permeabilized and incubated with anti-dynorphin antibodies followed by Alexa Fluor 488-conjugated secondary goat anti-rabbit antibodies. No labeling was detected in the absence of primary antibody. c, Enlarged images of Dyn A-accumulated Mac-1- and wild-type HEK cells shown in a and b. d, Quantification of fluorescent cells shown in a and b
(§3) Mac-1-HEK 293 and wild-type HEK 293 cells were incubated for 10 min with different concentrations (0–100 μM) of Dyn A and allowed to adhere to glass coverslips coated with poly-Lysine for 30 min. Adherent cells were fixed in 2 % paraformaldehyde solution, permeabilized with 0.1 % Tween-20, and blocked with 10 % normal goat serum plus 1 % BSA. The coverslips were incubated with 5 μg/ml polyclonal anti-Dyn A antibody followed by an secondary goat anti-rabbit antibody conjugated to Alexa Fluor 488 (1:1000). Images were taken using a Leica DM 4000B microscope (Leica, Buffalo Grove, IL).

wild-type HEK293 cells = assay: Translocation of Dyn A into wild-type HEK293 cells (immunolabeling); type: cell-based, Human; conditions: 20 μM Dyn A, 40 min at 37 °C
Description: as §2, §3

IC-21 macrophages = assay: Phagocytosis of Dyn A-coated latex beads by IC-21 macrophages; type: cell-based, murine; conditions: 1 μm beads preincubated with 50 μg/ml Dyn A, 30 min at 37 °C; vs control beads
Description: Fig. 8 Effect of Dyn A on phagocytosis of latex beads. a, Fluorescent latex beads (1x10^9/ml) were preincubated with Dyn A (50 μg/ml) for 40 min at 37 °C. Soluble peptide was removed from the beads by high-speed centrifugation. Peptide-coated beads were incubated with adherent IC-21 macrophages for 30 min at 37 °C. Nonphagocytosed beads were removed from cells by washing with PBS. […] Rat IgG2b was used as an isotype control for anti-αM mAb M1/70. Phagocytosis was quantified for five random fields per well using a 20x objective. Phagocytosis of Dyn A-treated beads was assigned as 100 %.
A suspension of fluorescent […] latex beads (1x10^9/ml) (FluoSpheres sulfate microspheres, Life Technologies, Carlsbad, CA) was incubated with 50 μg/ml of Dyn A for 40 min at 37 °C, then unbound peptide was removed by centrifugation. IC-21 murine macrophages (5 × 10^5/ml) were adhered on the cover glass for 30 min and 3 × 10^6 of peptide-coated beads were added to adherent IC-21 cells. After incubating for 30 minutes at 37 °C, nonphagocytosed beads were separated from macrophages by washing with 3x1 ml PBS and phagocytosed beads were counted in the presence of trypan blue. […] The ratio of beads per macrophage was quantified by taking photographs of five fields for each well using a Leica DM4000 B microscope (Leica Microsystems, Buffalo Grove, IL) with a 20 × objective.

[2] = system: Mac-1-deficient macrophages; assay: Transwell migration of Mac-1-deficient peritoneal macrophages to Dyn A; type: cell-based, mouse; conditions: 10 μM Dyn A, 90 min at 37 °C, TG-elicited
Description: Fig. 6 Migration of Mac-1-expressing cells to Dyn A in a Transwell system. a, Mac-1-expressing HEK 293 cells (100 μl at 3 × 10^6 cell/ml) were added to the upper wells of the transwell chamber and their ability to migrate to different concentrations of Dyn A placed in the lower chamber was analyzed. After 16 hours at 37 °C, migrated cells were fixed, stained, and counted. Data are presented as numbers of migrated cells per field ± S.E. for five random fields per well. The figure is representative of 5 experiments. b, Mac-1-expressing or wild-type HEK 293 cells were added to the upper wells of the transwell chamber and their ability to migrate to 10 μM Dyn A placed in the lower chamber was analyzed as in A. Some Mac-1-HEK293 cells were pretreated with 20 μg/ml of mAbs 44a (anti-αM), IB4 (anti-β2) or OKM1 (non function-blocking anti-αM) or medium alone before addition to the upper wells. ***, medium alone. […] The number of migrated cells was determined as in A. Data are presented as number of migrated cells per field ± S.E. for five random fields per well. […]
Migration assays with wild-type and Mac-1-expressing HEK293 cells and purified macrophages using Transwell inserts (5 μm pore size) were performed as previously described. […] The photographs were taken using a 20x objective and cells in […] and cells were counted. […]

CC[C@H](C)[C@H](NC(=O)[C@H](CCCNC(=N)N)NC(=O)[C@H](CCCNC(=N)N)NC(=O)[C@H](CC(C)C)NC(=O)[C@H](Cc1ccccc1)NC(=O)CNC(=O)CNC(=O)[C@@H](N)Cc1ccc(O)cc1)C(=O)N[C@@H](CCCNC(=N)N)C(=O)N1CCC[C@H]1C(=O)N[C@@H](CCCCN)C(=O)N[C@@H](CC(C)C)C(=O)N[C@@H](CCCCN)C(=O)N[C@@H](Cc1c[nH]c2ccccc12)C(=O)N[C@@H](CC(=O)O)C(=O)N[C@@H](CC(N)=O)C(=O)N[C@@H](CCC(N)=O)C(=O)O [Dyn A]
μ- and δ-opioid receptor binding [1]: can bind to μ- and δ-opioid receptors
Degranulation and histamine release (rat mast cells): induce degranulation and histamine release from rat mast cells
Secretion of IL-1 and TNFα (macrophages): increase secretion of IL-1 and TNFα by macrophages
Superoxide generation (macrophage): stimulate macrophage superoxide generation
Zymosan-triggered oxidative burst (macrophage): enhance macrophage zymosan-triggered oxidative burst
Nitric oxide release (macrophage; induced by LPS and IFN-γ): decrease nitric oxide release induced by LPS and IFN-γ
Localization of Dyn A in Mac-1-HEK293 cells (Mac-1-HEK293 cells; 20 μM Dyn A): primarily associated with the cell periphery
Number of Mac-1-HEK293 cells accumulating Dyn A vs wild-type (Mac-1-HEK293 cells; Dyn A, anti-dynorphin antibodies): significantly smaller number of Mac-1-HEK293 cells accumulated Dyn A
Localization of Dyn A in wild-type HEK293 cells (wild-type HEK293 cells): entering inside wild-type HEK293 cells
Augmentation of bead uptake (IC-21 macrophages): ~ 10 -fold
Migration of Mac-1-deficient macrophages (in words) [2]: significantly impaired
